The values that follow come from patent US12043632B2, “6-heteroaryloxy benzimidazoles and azabenzimidazoles as JAK2 inhibitors” (Ajax Therapeutics, Inc., priority 2020, dated 2024).

The term Kd denotes the free concentration of one partner at which half of the binding sites on the other are occupied at equilibrium, for simple one-to-one binding.

In this test the target is T1, JAK2 (JH1domain-catalytic, Y1007F,Y1008F) kinase (Homo sapiens, UniProt O60674, Y1007F/Y1008F).
T1 construct: JAK2 (JH1domain-catalytic, Y1007F,Y1008F) kinase was expressed as N-terminal fusion; made in house; host or cells: transiently transfected HEK293 cells
T1 sequence (O60674 849-1124 Y1007F/Y1008F limits assumed): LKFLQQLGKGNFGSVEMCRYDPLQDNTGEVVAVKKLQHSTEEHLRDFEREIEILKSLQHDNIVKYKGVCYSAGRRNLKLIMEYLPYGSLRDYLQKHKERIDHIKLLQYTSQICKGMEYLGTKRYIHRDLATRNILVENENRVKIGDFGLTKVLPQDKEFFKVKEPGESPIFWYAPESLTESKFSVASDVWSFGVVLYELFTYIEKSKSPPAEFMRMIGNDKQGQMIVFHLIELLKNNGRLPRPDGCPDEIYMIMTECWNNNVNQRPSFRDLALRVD
Put plainly: JAK2 JH1 Domain Binding Assay. The conditions noted are these: qPCR readout. Background: Quantitative PCR measures a nucleic acid by following its amplification.
The molecule `CNc1cn2ncc(Oc3cnc4nc(Nc5cc(O[C@H]6CCN(C)C6)cc(C(F)(F)F)c5)n(C)c4c3Cl)c2cn1` [Example I-314, (S)-7-chloro-1-methyl-6-((6-(methylamino)pyrazolo[1,5-a]pyrazin-3-yl)oxy)-N-(3-((1-methylpyrrolidin-3-yl)oxy)-5-(trifluoromethyl)phenyl)-1H-imidazo[4,5-b]pyridin-2-amine] gave a Kd of less than 10 nM.
Next, `CNc1cn2ncc(Oc3cnc4nc(Nc5cc(O[C@@H]6CCN(C)C6)cc(C(F)(F)F)c5)n(C)c4c3Cl)c2cn1` [Example I-315, (R)-7-chloro-1-methyl-6-((6-(methylamino)pyrazolo[1,5-a]pyrazin-3-yl)oxy)-N-(3-((1-methylpyrrolidin-3-yl)oxy)-5-(trifluoromethyl)phenyl)-1H-imidazo[4,5-b]pyridin-2-amine]: less than 10 nM; `CNc1cn2ncc(Oc3cnc4nc(Nc5cc(CN6CCCC6)cc(C(F)(F)F)c5)n(C)c4c3Cl)c2cn1` [Example I-316, 7-chloro-1-methyl-6-((6-(methylamino)pyrazolo[1,5-a]pyrazin-3-yl)oxy)-N-(3-(pyrrolidin-1-ylmethyl)-5-(trifluoromethyl)phenyl)-1H-imidazo[4,5-b]pyridin-2-amine]: 10 to 50 nM; `CNc1cn2ncc(Oc3cnc4nc(Nc5cc(C6CC6)nn(C)c5=O)n(C)c4c3Cl)c2cn1` [Example I-317, 4-((7-chloro-1-methyl-6-((6-(methylamino)pyrazolo[1,5-a]pyrazin-3-yl)oxy)-1H-imidazo[4,5-b]pyridin-2-yl)amino)-6-cyclopropyl-2-methylpyridazin-3(2H)-one]: 10 to 50 nM.
For `CNc1cn2ncc(Oc3cnc4nc(Nc5cc(C(F)(F)F)cn(C)c5=O)n(C)c4c3OC)c2cn1` [Example I-318, 3-((7-methoxy-1-methyl-6-((6-(methylamino)pyrazolo[1,5-a]pyrazin-3-yl)oxy)-1H-imidazo[4,5-b]pyridin-2-yl)amino)-1-methyl-5-(trifluoromethyl)pyridin-2(1H)-one], the Kd lay within 10 to 50 nM.
Next, `COCc1n[nH]c2ncc(Oc3cnc4nc(Nc5cc(C(F)(F)F)cn(C)c5=O)n(C)c4c3C#N)cc12` [Example I-319, 6-((3-(methoxymethyl)-1H-pyrazolo[3,4-b]pyridin-5-yl)oxy)-1-methyl-2-((1-methyl-2-oxo-5-(trifluoromethyl)-1,2-dihydropyridin-3-yl)amino)-1H-imidazo[4,5-b]pyridine-7-carbonitrile]: less than 10 nM.
The result for `CNc1ccc2c(Oc3cnc4nc(Nc5cc(C(F)(F)F)cn(C)c5=O)n(C)c4c3)cnn2c1` [Example I-320, 1-methyl-3-((1-methyl-6-((6-(methylamino)pyrazolo[1,5-a]pyridin-3-yl)oxy)-1H-imidazo[4,5-b]pyridin-2-yl)amino)-5-(trifluoromethyl)pyridin-2(1H)-one] reads 10 to 50 nM; that for `CNc1cn2ncc(Oc3cnc4nc(Nc5cc(C(F)(F)F)cn(C6CC6)c5=O)n(C)c4c3Cl)c2cn1` [Example I-321, 3-((7-chloro-1-methyl-6-((6-(methylamino)pyrazolo[1,5-a]pyrazin-3-yl)oxy)-1H-imidazo[4,5-b]pyridin-2-yl)amino)-1-cyclopropyl-5-(trifluoromethyl)pyridin-2(1H)-one], less than 10 nM.
For `Cn1c(Nc2cc(C(F)(F)F)n(C3CC4(COC4)C3)n2)nc2ncc(Oc3cnc4[nH]ccc4c3)c(C#N)c21` [Example I-322, 6-((1H-pyrrolo[2,3-b]pyridin-5-yl)oxy)-2-((1-(2-oxaspiro[3.3]heptan-6-yl)-5-(trifluoromethyl)-1H-pyrazol-3-yl)amino)-1-methyl-1H-imidazo[4,5-b]pyridine-7-carbonitrile], the Kd lay in the range of 10 to 50 nM.
Turning to `Cn1cc(C(F)(F)F)cc(Nc2nc3ncc(Oc4cnn5ccn(C)c(=O)c45)c(Cl)c3n2C)c1=O` [Example I-323, 3-((7-chloro-1-methyl-2-((1-methyl-2-oxo-5-(trifluoromethyl)-1,2-dihydropyridin-3-yl)amino)-1H-imidazo[4,5-b]pyridin-6-yl)oxy)-5-methylpyrazolo[1,5-a]pyrazin-4(5H)-one], the Kd lay in the range of 10 to 50 nM.
The result for `CNc1cn2ncc(Oc3cnc4nc(Nc5cc(C(F)(F)F)cn(-c6cccnc6)c5=O)n(C)c4c3Cl)c2cn1` [Example I-324, 3-((7-chloro-1-methyl-6-((6-(methylamino)pyrazolo[1,5-a]pyrazin-3-yl)oxy)-1H-imidazo[4,5-b]pyridin-2-yl)amino)-5-(trifluoromethyl)-2H-[1,3′-bipyridin]-2-one] reads 50 to 1000 nM; that for `[2H]C([2H])([2H])n1cc(C(F)(F)F)cc(Nc2nc3ncc(Oc4cnn5cc(NC)ncc45)c(Cl)c3n2C)c1=O` [Example I-325, 3-((7-chloro-1-methyl-6-((6-(methylamino)pyrazolo[1,5-a]pyrazin-3-yl)oxy)-1H-imidazo[4,5-b]pyridin-2-yl)amino)-1-(methyl-d3)-5-(trifluoromethyl)pyridin-2(1H)-one], 10 to 50 nM; that for `CNc1cn2ncc(Oc3cnc4nc(Nc5ccc(CN6CCC(F)(F)C6)c(C(F)(F)F)c5)n(C)c4c3Cl)c2cn1` [Example I-326, 7-chloro-N-(4-((3,3-difluoropyrrolidin-1-yl)methyl)-3-(trifluoromethyl)phenyl)-1-methyl-6-((6-(methylamino)pyrazolo[1,5-a]pyrazin-3-yl)oxy)-1H-imidazo[4,5-b]pyridin-2-amine], 50 to 1000 nM.
On to `CNc1cn2ncc(Oc3cnc4nc(Nc5cc(CN(C)C)cc(C(F)(F)F)c5)n(C)c4c3Cl)c2cn1` [Example I-327, 7-chloro-N-(3-((dimethylamino)methyl)-5-(trifluoromethyl)phenyl)-1-methyl-6-((6-(methylamino)pyrazolo[1,5-a]pyrazin-3-yl)oxy)-1H-imidazo[4,5-b]pyridin-2-amine], for which the Kd was 10 to 50 nM.
The result for `CNc1cn2ncc(Oc3cnc4nc(Nc5cc(C(F)(F)F)cn(-c6cnn(C)c6)c5=O)n(C)c4c3Cl)c2cn1` [Example I-328, 3-((7-chloro-1-methyl-6-((6-(methylamino)pyrazolo[1,5-a]pyrazin-3-yl)oxy)-1H-imidazo[4,5-b]pyridin-2-yl)amino)-1-(1-methyl-1H-pyrazol-4-yl)-5-(trifluoromethyl)pyridin-2(1H)-one] reads 10 to 50 nM; that for `Cc1c[nH]c2ncc(Oc3cnc4nc(Nc5cc(C(F)(F)F)cn(C)c5=O)n(C)c4c3C#N)cc12` [Example I-329, 1-methyl-6-((3-methyl-1H-pyrrolo[2,3-b]pyridin-5-yl)oxy)-2-((1-methyl-2-oxo-5-(trifluoromethyl)-1,2-dihydropyridin-3-yl)amino)-1H-imidazo[4,5-b]pyridine-7-carbonitrile], less than 10 nM.
Consider `Cn1c(Nc2cc(C(F)(F)F)n(C3CC4(COC4)C3)n2)nc2ncc(Oc3cnc4[nH]ncc4c3)c(C#N)c21` [Example I-330, 6-((1H-pyrazolo[3,4-b]pyridin-5-yl)oxy)-2-((1-(2-oxaspiro[3.3]heptan-6-yl)-5-(trifluoromethyl)-1H-pyrazol-3-yl)amino)-1-methyl-1H-imidazo[4,5-b]pyridine-7-carbonitrile], for which the Kd was less than 10 nM.
